Test results from patent US4960770A, “2-alkyl thieno(triazolo)diazepine compounds and pharmaceutical uses thereof” (Yoshitomi Pharmaceutical Industries, Ltd., priority 1987, dated 1990).
In brackets after ≈: the same amount, converted by molar mass. Read-outs that look alike come from different tables or passages of the source.

Key:
[1] = system: PAF-induced platelet aggregation; experiment: Inhibitory effect on platelet aggregation in rabbits (in vitro test); type: cell-based; settings: Oryctolagus cuniculus, rabbit PRP, PAF 1.8×10^-7 M, 37° C., read-out: Inhibition of PAF-induced platelet aggregation, IC50
Procedure: (§1) Blood samples to which was added 0.1 volume of 3.8% sodium citrate were collected from rabbits. Platelet rich plasma (PRP) was prepared by centrifuging the blood sample at 200 x g for 10 minutes, and platelet poor plasma (PPP) was prepared by centrifuging the remaining blood sample at 1000 x g for 10 minutes.
(§2) Aggregation ability was measured with a turbidimetric device (6-channel NKK Hematracer 1, model PAT-6A) according to the method of G.V.R. Born described in J. Physiology, vol. 168, p. 178 (1963). The aggregometer was adjusted in sensitivity to give light transmission values of 0 and 100% for PRP and PPP, respectively. With stirring at 1000 rpm, 0.3 μl of test compound solution or vehicle was added to 0.3 ml of PRP. After the mixture was kept at 37° C. for 2 minutes, to the mixture was added 3 μl of synthesized platelet activating factor at the final concentration of 1.8×10^-7 M and the light transmission was recorded for 5 minutes.
(§3) The inhibition percentage of test compounds on platelet aggregation were calculated from the following formula by measuring the maximal light transmission in the presence and absence of the test compounds. [formula]

[2] = system: coronary artery blood flow; experiment: Effect on coronary flow (coronary artery blood flow in anesthetized dogs); type: in vivo, mongrel dogs; settings: relative to flow increase at 3 μg nifedipine
Procedure: Adult mongrel dogs were anesthetized with sodium pentobarbital (30 mg/kg, i.v.). According to the method of Yago et al described in Folia Pharmacologica Japonica, vol. 57, p. 380 (1961), the left coronary artery was perfused and its blood flow was measured. Test compound was injected into the coronary artery at a volume of 10-30 μl. To determine the effect of the test compound on coronary artery blood flow, an increase percentage of blood flow at each dosage was calculated based on the increase of the blood flow at a dosage of 3 μg of nifedipine.

[3] = system: vertebral blood flow; experiment: Effect of vertebral blood flow (anesthetized dogs); type: in vivo, mongrel dogs; settings: Canis lupus familiaris; dose required to obtain 100% of the flow increase by intraartery 3 μg/kg nifedipine
Procedure: Adult mongrel dogs were anesthetized with sodium pentobarbital (30 mg/kg. i.v.) and the blood flow of the left vertebral artery was measured.

[4] = target: calcium/calmodulin dependent phosphodiesterase; experiment: Effect on calcium/calmodulin dependent phosphodiesterase; type: biochemical; settings: [3H]-cAMP, pH 8.0, 37° C., 20 minutes; read-out: Inhibitory action on calcium/calmodulin dependent phosphodiesterase IC50
Procedure: The experiment was carried out according to the method of Thompson et al. described in Advances in Cyclic Nucleotide Research, Vol. 10, p. 69 (1979). Briefly, the solution of which final volume was 200μl was prepared by mixing 40 μl of 200 mM Tris-HCl buffer solution (pH 8.0), containing 25 mM magnesium chloride and 0.5 mM ethyleneglycol-bis(β-aminoethylether)-N,N '-tetra acetic acid (EGTA), 20 μof 10μM [^3 H]-cAMP (250 nCi), test compound and a solution of calcium/calmodulin dependent phosphodiesterase (PDE) enzyme. The test compound was dissolved in dimethyl sulfoxide to give 1% of final concentration. The incubation was performed at 37° C. for 20 minutes and then stopped by heating for 1 minutes in a boiling water bath. The resulting 5'-AMP was converted into adenosine by adding 50 μl of snake venom (1 mg/ml) and incubating at 30° C. for 10 minutes. Then, to the solution was added 500 μl of AGI-X8 (methanol:resin=3:2) and the mixture was allowed to stand under ice-cooling for 15 minutes with occasional shaking to adsorb the unreacted cAMP. After centrifuging, the radioactivity of the supernatant was measured by a liquid scintillation counter.
The action of the test compound on PDE activity was studied by calculating the inhibition percentage in the absence of calcium/calmodulin from the following formula, and represented as IC50 value. [formula] a: PDE activity in the presence of test compound and in the absence of calmodulin
b: PDE activity in the absence of test compound and calmoduline

[5] = target: T1, calmodulin (bovine encephalon) (Bos taurus, UniProt P62157); experiment: Calmodulin inhibitory action (NPN fluorescence probe method); type: biochemical
T1 construct: calmodulin (bovine encephalon); from tissue; host or cells: bovine encephalon (brain)
Procedure: Calmodulin inhibitory action was measured according to the modified method of Epstein et al. described in Biochemical and Biophysical Research Communications, Vol. 105, p. 1142 (1982). Briefly, to 25 mM Tris-HCl buffer solution (pH 7.0) were added as a final concentration 1 mM calcium chloride, 5 μM N-phenyl-1-naphthylamine (NPN), 1000 units of calmodulin (bovine encephalon) and each of test compound to give 3 ml of final solution volume. The solution was allowed to stand at room temperature for 1 hour and the fluorescence intensity was measured by a fluorescene photometer (ex. 350 nm, em. 440 nm). A blank was prepared by adding water instead of calmodulin. Each of test compound was dissolved in dimethyl sulfoxide or 2.5% dimethyl sulfoxide solution and the final concentration of dimethyl sulfoxide was adjusted to 0.25%.

[6] = system: PAF-induced lethal shock; experiment: Effect of PAF-induced lethal shock in mice; type: in vivo, male ICR mice; settings: 1 hour before PAF 80 μg/kg i.v., 24 hours
Procedure: The experiment was carried out according to the method of Young et al. described in Prostaglandins, vol. 30, p. […] Groups of 9 to 15 male ICR mice (Charles River) weighing 25-30 g were used. 80 μg/kg of PAF (Serdary Research Labo.) solution was intravenously administered in a lateral tail vein 1 hour after the oral administration of test compound (0.1 ml/10 g). […] Results were given as number of survivors/number of employed animals and survival rates (%) in Table 4.

[7] = system: PAF-induced platelet aggregation; experiment: Inhibitory effect on platelet aggregation in rabbits (ex vivo test); settings: 10 mg/kg p.o.; for inhibition at 10 mg/kg: Oryctolagus cuniculus, Platelet, po, read-out: % of inhibition after administration
Procedure: as §1, §2, §3
Test compound was orally administered to a group of three rabbits instead of adding it to PRP as in vitro test of Experiment 2, and then the citrated blood samples (1 volume of 3.8% sodium citrate +9 volumes of blood) were collected with the passage of time. Then, the blood samples were employed to determine the inhibitory effect according to Experiment 2.

[8] = dosage 30 μg into coronary artery
[9] = dosage 100 μg into coronary artery
[10] = dosage 300 μg into coronary artery

CCCCCCCCCCCCc1cc2c(s1)-n1c(C)nnc1CN=C2c1ccccc1Cl [Example 73, 4-(2-chlorophenyl)-2-dodecyl-9-methyl-6H-thieno[3,2-f][1,2,4]triazolo[4,3-a][1,4]-diazepine]
IC50 [1]: 0.3 to 1 µg/mL (≈ 0.621 to 2.07 µM)

CCCCCCc1cc2c(s1)-n1c(C)nnc1CN=C2c1cc(OC)c(OC)c(OC)c1 [Example 67, 2-hexyl-4-(3,4,5-trimethoxyphenyl)-9-methyl-6H-thieno[3,2-f][1,2,4]triazolo[4,3-a][1,4]diazepine]
Effect on coronary blood flow [2, 8]: 43%
Effect on coronary blood flow [2, 9]: 86%
Effect on coronary blood flow [2, 10]: 114%
ED100 [3]: 0.078 mg/kg
IC50 [4]: 7 µM

CCOC(=O)C1=C[C@]2(CC)CCCN3CCc4c(n1c1ccccc41)[C@@H]32 [vinpocetine, reference compound]
IC50 [4]: 88 µM

CCCCCCc1cc2c(s1)-n1c(C)nnc1C(C)N=C2c1ccccc1Cl (stereo not shown) [Example 74, 4-(2-chlorophenyl)-2-hexyl-6,9-dimethyl-6H-thieno[3,2-f][1,2,4]triazolo[4,3-a][1,4]diazepine]
IC50 [5]: 1.2 µM
Effect on coronary blood flow [2, 8]: 16%
Effect on coronary blood flow [2, 9]: 57%
Effect on coronary blood flow [2, 10]: 86%
Number of Survivors/Number of Animals ([6]; 0.1 mg/kg p.o.): 5/6
Survival rate ([6]; 0.1 mg/kg p.o.): 83.3%
Number of Survivors/Number of Animals ([6]; 1 mg/kg p.o.): 7/7
Survival rate ([6]; 1 mg/kg p.o.): 100%

CCCCCCc1cc2c(s1)-n1c(C)nnc1CN=C2c1cc(C)ccc1C [Example 65, 2-hexyl-4-(2,5-dimethylphenyl)-9-methyl-6H-thieno[3,2-f][1,2,4]triazolo[4,3-a][1,4]diazepine]
ED100 [3]: 0.099 mg/kg
IC50 [4]: 20 µM

CCCCCCc1cc2c(s1)-n1c(C)nnc1C(C)N=C2c1ccccc1C (stereo not shown) [Example 68, 2-hexyl-4-(2-methylphenyl)-6,9-dimethyl 6H-thieno[3,2-f][1,2,4]triazolo[4,3-a][1,4]diazepine]
IC50 [5]: 1.1 µM
Effect on coronary blood flow [2, 8]: 33%
Effect on coronary blood flow [2, 9]: 63%
Effect on coronary blood flow [2, 10]: 100%
Number of Survivors/Number of Animals ([6]; 0.1 mg/kg p.o.): 5/6
Survival rate ([6]; 0.1 mg/kg p.o.): 83.3%
Number of Survivors/Number of Animals ([6]; 0.3 mg/kg p.o.): 6/7
Survival rate ([6]; 0.3 mg/kg p.o.): 85.7%
Number of Survivors/Number of Animals ([6]; 1 mg/kg p.o.): 6/7
Survival rate ([6]; 1 mg/kg p.o.): 85.7%

CCc1cc2c(s1)-n1c(C)nnc1CN=C2c1ccccc1Cl [Etizolam, 6-(o-chlorophenyl)-8-ethyl-1-methyl-4H-s-triazolo[3,4-c]thieno[2,3-e][1,4]diazepine, reference compound]
IC50 [1]: 1.3 µg/mL (≈ 3.79 µM)
% of inhibition at each time after administration (in words) ([7]; one entry for 1, 3 and 6 hours): no effect

CCCCCCc1cc2c(s1)-n1c(C)nnc1CN=C2c1ccccc1OC [Example 55, 2-hexyl-4-(2-methoxyphenyl)-9-methyl-6H-thieno[3,2-f][1,2,4]triazolo[4,3-a][1,4]diazepine]
IC50 [1]: 0.03 to 0.1 µg/mL (≈ 0.076 to 0.253 µM)

CCCCCCCCCCc1cc2c(s1)-n1c(C)nnc1CN=C2c1ccccc1OC [Example 69, 2-decyl-4-(2-methoxyphenyl)-9-methyl-6H-thieno[3,2-f][1,2,4]triazolo[4,3-a][1,4]diazepine]
IC50 [1]: 0.3 to 1 µg/mL (≈ 0.666 to 2.22 µM)

CCCCCCc1cc2c(s1)-n1c(C)nnc1CN=C2c1ccccc1Cl [Example 54, 4-(2-chlorophenyl)-2-hexyl-9-methyl-6H-thieno[3,2-f][1,2,4]triazolo[4,3-a][1,4]diazepine]
Number of Survivors/Number of Animals ([6]; 0.3 mg/kg p.o.): 3/10
Survival rate ([6]; 0.3 mg/kg p.o.): 30%
Number of Survivors/Number of Animals ([6]; 3 mg/kg p.o.): 10/10
Survival rate ([6]; 3 mg/kg p.o.): 100%
IC50 [1]: 0.03 to 0.1 µg/mL (≈ 0.0752 to 0.251 µM)
inhibition at 10 mg/kg ([7]; 1 hour): 100%
inhibition at 10 mg/kg ([7]; 3 hours): 100%
inhibition at 10 mg/kg ([7]; 6 hours): 85%

CCCCCCCCc1cc2c(s1)-n1c(C)nnc1CN=C2c1ccccc1Cl [Example 57, 4-(2-chlorophenyl)-2-octyl-9-methyl-6H-thieno[3,2-f][1,2,4]triazolo[4,3-a][1,4]diazepine]
IC50 [1]: 0.01 to 0.1 µg/mL (≈ 0.0234 to 0.234 µM)
IC50 [4]: 11 µM

CCCCCCCCCCc1cc2c(s1)-n1c(C)nnc1CN=C2c1ccccc1Cl [Example 72, 4-(2-chlorophenyl)-2-decyl-9-methyl 6H-thieno[3,2-f][1,2,4]triazolo[4,3-a][1,4]-diazepine]
IC50 [1]: 0.03 to 0.1 µg/mL (≈ 0.0659 to 0.22 µM)

CCCCCCc1cc2c(s1)-n1c(C)nnc1CN=C2c1ccccc1C [Example 58, 2-hexyl-4-(2-methylphenyl)-9-methyl-6H-thieno[3,2-f][1,2,4]triazolo[4,3-a][1,4]diazepine]
Effect on coronary blood flow [2, 8]: 63%
Effect on coronary blood flow [2, 9]: 107%
Effect on coronary blood flow [2, 10]: 136%

CCCCCCc1cc2c(s1)-n1c(C)nnc1CN=C2c1ccc(C)cc1 [Example 61, 2-hexyl-4-(4-methylphenyl)-9-methyl-6H-thieno[3,2-f][1,2,4]triazolo[4,3-a][1,4]diazepine]
Effect on coronary blood flow [2, 8]: 55%
Effect on coronary blood flow [2, 9]: 69%
Effect on coronary blood flow [2, 10]: 103%
Number of Survivors/Number of Animals ([6]; 1 mg/kg p.o.): 6/8
Survival rate ([6]; 1 mg/kg p.o.): 75%
Number of Survivors/Number of Animals ([6]; 3 mg/kg p.o.): 8/8
Survival rate ([6]; 3 mg/kg p.o.): 100%

CCCCCCc1cc2c(s1)-n1c(C)nnc1CN=C2c1cccc(C)c1 [Example 62, 2-hexyl-4-(3-methylphenyl)-9-methyl-6H-thieno[3,2-f][1,2,4]triazolo[4,3-a][1,4]diazepine]
Number of Survivors/Number of Animals ([6]; 3 mg/kg p.o.): 6/8
Survival rate ([6]; 3 mg/kg p.o.): 75%
IC50 [4]: 11 µM
